Reference: EP0968998A1, “Cosmetic compositions, ceramide analogues with anti-elastase activity and process for their preparation” (ELF ATOCHEM S.A., priority 1998, dated 2000)

Tested on: stratum corneum
Assay: Skin hydration: capacitance measurement (Corneometer Courage+Khazaka CM 200), hydration index, cream applied to forearm
Assay type: in vivo, volontaires sains ayant une peau sèche
Settings: cream with 0,5 % (ex. 7, témoins), 1 % (ex. 4, 8), 5 % (ex. 6)
From the text: Les exemples qui suivent permettent d'illustrer l'invention. […] Les valeurs sont exprimées en nombre d'onde par centimètre. - Résonance magnétique nucléaire (RMN) Les spectres sont réalisés au moyen d'un appareil BRUCKER DRX 500, à 500 MHz (^1H) et 125 MHz (^13C) dans le DMSO-d6. La calibration de l'appareil est effectuée au moyen de DMSO. Les déplacements chimiques sont exprimés en ppm. […] On utilise le N-succinyl-(Ala)3-p-nitroanilide en solution dans le tétrahydrofurane et une solution d'élastase à 100 mg/ml dans un mélange de glycérol et de tampon acétate de sodium (50/50; v/v), pH5. L'activité de l'enzyme est mesurée à 37°C dans 100 mM de tampon Tris-HCI, pH8 contenant 0,01 % de Triton X-100 (volume/volume) et 0,02 % d'azide de sodium (poids/volume). Le céramide à tester, solubilisé dans le tétrahydrofurane (concentration en THF = 0,5 % en volume) est préincubé en présence de l'enzyme (0,05 mg/ml) dans le tampon pendant 5 minutes à 37°C. On ajoute le N-succinyl-(Ala)3-p-nitroanilide (concentration finale : 250 µM) et on mesure la libération de la p-nitroaniline dans une cuve en quartz par spectrophotométrie à 410 nm. La capacité inhibitrice du céramide est exprimée en pourcentage d'inhibition (% I) selon la relation : %I = (1 -(Vi)/(Vo))×100 [formula] dans laquelle Vi et Vo sont les vitesses d'apparition de la p-nitroaniline en présence et en absence d'inhibiteur respectivement. - Mesure de l'amélioration de la barrière cutanée a) mesure de la Perte Insensible en Eau (PIE) La mesure de la PIE permet de quantifier la très faible quantité d'eau qui diffuse passivement à travers le stratum corneum. Ce paramètre représente un très bon index de la fonction barrière du stratum corneum. Cette méthode est surtout utilisée pour contrôler l'efficacité de formules cosmétiques qui, contenant certains types de lipides sont capables de diminuer la PIE et, en conséquence, d'empêcher la déshydratation du stratum corneum. La sonde est laissée en contact de la peau pendant 2 minutes environ de façon à atteindre une position d'équilibre. PIE = D'(dP)/(dx)(gradient de pression de vapeur) [formula] Les valeurs sont exprimées en g/m^2/heure et permettent de calculer un delta de PIE = PIE (peau traitée) - PIE (peau témoin). L'appareil utilisé est un Evaporimètre EPI de Servomed. Les mesures sont effectuées sur deux groupes de 15 volontaires sains ayant une peau sèche, avant l'application du produit (t=0) et après l'application (t=0,5 heure, 1 heure, 3 heures et 6 heures) sur la face interne des deux avant-bras. L'analogue de céramide selon l'invention ou le céramide témoin est incorporé dans une crème ayant la composition suivante (en % en poids) :
La teneur en analogue de céramide dans la crème est égale à 0,5 % (exemple 7), 1 % (exemples 4 et 8) et 5 % (exemple 6), et celle des céramides témoins (a) et (b) est égale à 0,5 %. La diminution des valeurs de PIE signifie une amélioration de la qualité de la barrière cutanée qui traduit un meilleur pouvoir retentionnel de l'eau au niveau de la couche cornée et donc une meilleure hydratation. b) hydratation cutanée L'eau peut être considérée comme un dipôle électrique capable de conduire l'électricité. Le transport d'électricité dans un champ donné est proportionnel à la quantité d'eau présente dans le stratum corneum. Plus une peau est riche en eau et plus le courant électrique passe rapidement entre 2 électrodes. Il existe donc un lien entre l'hydratation du stratum corneum et les modifications des propriétés électriques. Les mesures de capacitance, liée à la constante diélectrique de la peau, sont réalisées par le Cornéomètre Courage+Khazaka CM 200, dont la sonde présente une surface de contact avec la peau de 49 mm^2; cette sonde est appliquée avec une pression constante sur la surface cutanée à mesurer, et l'indice d'hydratation directement proportionnel au taux hydrique de surface est instantané.

## CCCCCCCCCCCCCCCCCC(=O)NC(CC)(CO)COC(=O)CCCCCCCCCCCCCCCCC (centres unmarked) [Exemple 4, 1-stéaroyl-2-éthyl-2-stéaroylamino-1,3-propanediol]
t=0,5 heure after application
  Indice d'Hydratation (IH) M±s: 66,87±7,50
t=0 heure (before application, baseline)
  Indice d'Hydratation (IH) M±s: 64,69±9,04
t=1 heure after application
  Indice d'Hydratation (IH) M±s: 65,56±6,96
t=3 heures after application
  Indice d'Hydratation (IH) M±s: 62,31±7,17
t=6 heures after application
  Indice d'Hydratation (IH) M±s: 62,91±7,78
